Results as given in patent US20260092071A1, “COMPOUNDS AND COMPOSITIONS AS SMARCA2/4 DEGRADERS AND USES THEREOF” (REGENTS OF THE UNIVERSITY OF MICHIGAN, priority 2022, published 2026).

Tests used:
Format in all cases: cell-based
SMARCA4 [1] = target: T1, SMARCA4 (Homo sapiens, UniProt P51532); experiment: HiBiT assay for protein degradation, Hela SMARCA4-HiBiT cells (A series); design: fuse HiBiT to the carboxy terminus of SMARCA2 (Promega CS302365) or SMARCA4 (Promega CS3023225); host or cells: HeLa (CRISPR/Cas9 HiBiT knock-in); settings: for DC50: read-out: SMARC A4 Hela HiBit DC50
Description: (§1) Hela cells were genetically modified via CRISPR/Cas9 to fuse HiBiT to the carboxy terminus of SMARCA2 (Promega CS302365) or SMARCA4 (Promega CS3023225). Cells were cultured in DMEM containing 10% FBS and 1% (Vol:Vol) penicillin-streptomycin. […] At the end of experiment, levels of SMARCA2 or SMARCA4 expression were assessed with Nano-Glo® HiBiT Lytic Detection Assay (Promega N3050). IC50 was obtained using the GraphPad Prism data analysis software.

SMARCA2 [2] = target: T2, SMARCA2 (Homo sapiens, UniProt P51531); experiment: HiBiT assay for protein degradation, Hela SMARCA2-HiBiT cells (A series); design: Hela cells were genetically modified via CRISPR/Cas9 to fuse HiBiT to the carboxy terminus of SMARCA2; host or cells: HeLa (CRISPR/Cas9 HiBiT knock-in)
Description: as §1

SMARCA2 [3] = target: T2, SMARCA2; experiment: HiBit assay in engineered HT1080 CRISPR knock-in cell, 6 hrs (B series), SMARCA2; settings: 6 hrs incubation; for DC50 / SMARC A2 HT1080 HiBit Dmax (%): HT1080 CRISPR knock-in cells; for DC50: read-out: SMARC A2 HT1080 HiBit DC50; for Dmax: HT-1080, HT1080 CRISPR knock-in cells, read-out: SMARC A2 HT1080 HiBit Dmax (%)
Outline: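 HT1080 CRISPR knock-in cells carrying HiBiT-tagged SMARCA2 seeded onto compound (0.1% DMSO) at 2000 cells/well. Incubated 6 h at 37 °C, 5% CO2, then lysed with Nano-Glo HiBiT lytic reagent containing LgBiT, and luminescence read.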

SMARCA4 [4] = target: T1, SMARCA4; experiment: HiBit assay in engineered HT1080 CRISPR knock-in cell, 6 hrs (B series), SMARCA4; settings: 6 hrs incubation; for DC50: read-out: SMARC A4 HT1080 HiBit DC50; for Dmax: HT-1080, HT1080 CRISPR knock-in cells, read-out: SMARC A4 HT1080 HiBit Dmax(%)
Outline: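 HT1080 CRISPR knock-in cells carrying the HiBiT tag were seeded onto compounds (final DMSO 0.1%) and incubated 6 hrs at 37° C, 5% CO2. Remaining tagged protein was detected by lytic HiBiT luminescence after adding LgBiT protein and substrate, with LgBiT-free wells serving as negative control.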

[5] = Hela SMARCA4-HiBiT cells, 24 hours treatment
[6] = Hela SMARCA2-HiBiT cells, 24 hours treatment; read-out: SMARC A2 Hela HiBit Dmax (%)
[7] = Hela SMARCA4-HiBiT cells, 24 hours treatment, read-out: SMARC A4 Hela HiBit Dmax
[8] = Hela SMARCA2-HiBiT cells, 24 hours treatment; read-out: SMARC A2 Hela HiBit DC50
[9] = read-out: SMARC A2 Hela HiBit DC50

T1 sequence (P51532 whole entry): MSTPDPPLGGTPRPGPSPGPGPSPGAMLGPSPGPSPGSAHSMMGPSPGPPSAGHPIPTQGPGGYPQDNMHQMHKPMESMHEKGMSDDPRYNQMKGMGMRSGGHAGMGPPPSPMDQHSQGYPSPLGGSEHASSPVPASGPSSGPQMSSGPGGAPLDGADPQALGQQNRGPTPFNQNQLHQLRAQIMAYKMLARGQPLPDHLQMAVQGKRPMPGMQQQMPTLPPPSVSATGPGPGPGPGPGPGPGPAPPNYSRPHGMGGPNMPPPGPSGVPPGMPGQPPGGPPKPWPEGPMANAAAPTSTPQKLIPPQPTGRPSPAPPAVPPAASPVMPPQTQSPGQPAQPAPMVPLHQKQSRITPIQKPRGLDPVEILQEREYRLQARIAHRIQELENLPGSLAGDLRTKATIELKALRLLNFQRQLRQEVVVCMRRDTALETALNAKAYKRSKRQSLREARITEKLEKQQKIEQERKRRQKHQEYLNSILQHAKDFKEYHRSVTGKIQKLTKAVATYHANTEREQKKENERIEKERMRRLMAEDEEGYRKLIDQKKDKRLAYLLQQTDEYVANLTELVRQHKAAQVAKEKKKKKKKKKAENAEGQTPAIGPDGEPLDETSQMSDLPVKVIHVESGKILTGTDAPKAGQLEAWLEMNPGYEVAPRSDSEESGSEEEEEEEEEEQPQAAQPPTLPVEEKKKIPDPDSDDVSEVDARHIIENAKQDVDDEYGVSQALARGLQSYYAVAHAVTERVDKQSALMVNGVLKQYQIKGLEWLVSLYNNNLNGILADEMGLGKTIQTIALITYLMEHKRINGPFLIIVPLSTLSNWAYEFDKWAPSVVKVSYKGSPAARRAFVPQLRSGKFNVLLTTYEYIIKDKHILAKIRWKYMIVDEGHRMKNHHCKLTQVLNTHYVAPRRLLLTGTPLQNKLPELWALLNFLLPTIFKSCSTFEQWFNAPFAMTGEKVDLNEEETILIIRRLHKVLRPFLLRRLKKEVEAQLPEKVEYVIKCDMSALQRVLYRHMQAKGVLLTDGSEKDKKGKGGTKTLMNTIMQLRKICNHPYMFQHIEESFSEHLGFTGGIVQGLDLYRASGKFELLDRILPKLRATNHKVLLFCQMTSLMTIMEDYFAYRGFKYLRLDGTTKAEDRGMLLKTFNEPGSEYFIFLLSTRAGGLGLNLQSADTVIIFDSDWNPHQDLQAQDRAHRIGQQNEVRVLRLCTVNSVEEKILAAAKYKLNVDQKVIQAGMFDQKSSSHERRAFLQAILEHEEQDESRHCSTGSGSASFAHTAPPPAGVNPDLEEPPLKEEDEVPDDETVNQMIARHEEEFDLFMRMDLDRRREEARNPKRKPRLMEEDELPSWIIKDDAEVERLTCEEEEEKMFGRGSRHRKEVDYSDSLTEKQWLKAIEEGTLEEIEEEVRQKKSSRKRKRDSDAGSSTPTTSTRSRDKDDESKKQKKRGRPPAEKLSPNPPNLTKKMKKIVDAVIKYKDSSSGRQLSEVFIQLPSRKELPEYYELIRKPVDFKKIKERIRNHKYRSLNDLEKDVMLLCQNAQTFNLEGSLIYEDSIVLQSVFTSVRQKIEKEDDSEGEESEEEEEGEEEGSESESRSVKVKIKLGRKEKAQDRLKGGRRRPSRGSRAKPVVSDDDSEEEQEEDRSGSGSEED
T2 sequence (P51531 whole entry): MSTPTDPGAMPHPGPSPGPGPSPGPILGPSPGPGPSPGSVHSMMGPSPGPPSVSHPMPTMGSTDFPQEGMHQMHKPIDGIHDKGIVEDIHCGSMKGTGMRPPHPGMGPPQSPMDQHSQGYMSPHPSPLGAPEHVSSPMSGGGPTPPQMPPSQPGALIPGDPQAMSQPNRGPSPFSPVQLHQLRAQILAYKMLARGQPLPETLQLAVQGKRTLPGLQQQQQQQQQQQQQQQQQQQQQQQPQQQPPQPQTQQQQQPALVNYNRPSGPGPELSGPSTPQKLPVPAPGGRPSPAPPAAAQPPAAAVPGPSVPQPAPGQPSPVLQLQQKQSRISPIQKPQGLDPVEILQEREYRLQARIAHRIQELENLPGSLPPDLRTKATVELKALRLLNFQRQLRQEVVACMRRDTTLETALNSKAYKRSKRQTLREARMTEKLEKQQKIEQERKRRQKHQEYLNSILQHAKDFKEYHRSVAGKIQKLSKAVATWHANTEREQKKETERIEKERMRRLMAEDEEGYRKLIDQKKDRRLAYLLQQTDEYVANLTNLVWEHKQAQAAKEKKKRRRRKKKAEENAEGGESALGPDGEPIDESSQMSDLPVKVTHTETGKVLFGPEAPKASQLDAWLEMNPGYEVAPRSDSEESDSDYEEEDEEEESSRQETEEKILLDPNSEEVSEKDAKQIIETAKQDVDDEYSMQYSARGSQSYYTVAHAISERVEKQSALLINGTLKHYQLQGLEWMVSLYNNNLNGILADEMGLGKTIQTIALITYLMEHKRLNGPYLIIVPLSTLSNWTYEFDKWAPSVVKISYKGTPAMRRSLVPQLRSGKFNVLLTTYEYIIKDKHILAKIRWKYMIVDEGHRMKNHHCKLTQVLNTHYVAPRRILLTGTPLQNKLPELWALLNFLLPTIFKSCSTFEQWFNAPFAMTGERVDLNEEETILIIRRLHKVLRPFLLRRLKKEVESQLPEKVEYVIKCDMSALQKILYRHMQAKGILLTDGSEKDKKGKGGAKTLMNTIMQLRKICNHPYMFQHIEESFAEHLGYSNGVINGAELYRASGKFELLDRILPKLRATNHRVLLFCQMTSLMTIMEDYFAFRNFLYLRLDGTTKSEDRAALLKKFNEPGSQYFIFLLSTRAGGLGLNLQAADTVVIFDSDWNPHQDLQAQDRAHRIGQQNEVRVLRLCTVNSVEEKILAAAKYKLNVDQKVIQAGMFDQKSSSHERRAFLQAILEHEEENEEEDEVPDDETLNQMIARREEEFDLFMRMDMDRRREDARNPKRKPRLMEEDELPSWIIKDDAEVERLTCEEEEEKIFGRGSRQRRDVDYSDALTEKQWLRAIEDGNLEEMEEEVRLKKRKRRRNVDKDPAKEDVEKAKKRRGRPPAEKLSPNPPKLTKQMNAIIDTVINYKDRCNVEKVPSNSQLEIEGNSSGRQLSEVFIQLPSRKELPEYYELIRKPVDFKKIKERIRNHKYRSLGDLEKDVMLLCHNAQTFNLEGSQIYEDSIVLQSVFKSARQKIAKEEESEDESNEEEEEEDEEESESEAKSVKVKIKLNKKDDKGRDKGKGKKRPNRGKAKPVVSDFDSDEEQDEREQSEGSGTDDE

Dmax (SMARCA2 [2]; [6]) [%] | DC50 (SMARCA2 [3]) [nM] | Dmax (SMARCA2 [3]) [%] | DC50 (SMARCA4 [4]; HT1080 CRISPR knock-in cells) [nM] | Dmax (SMARCA4 [4]) [%] | SMILES | also measured
70 to 90 | – | – | – | – | Cc1ncsc1-c1ccc([C@H](C)NC(=O)[C@@H]2C[C@@H](O)CN2C(=O)[C@@H](NC(=O)[C@H]2CC[C@H](CN3CCC(c4ccc5c(c4)-n4c(nc(=O)c6c(Cl)cccc64)C54CCCCC4)CC3)CC2)C(C)(C)C)cc1 [Compound A42, (2S,4R)-1-((S)-2-((1r,4S)-4-((4-(4′-chloro-5′-oxo-5′H-spiro[cyclohexane-1,7′-indolo[1,2-a]quinazolin]-10′-yl)piperidin-1-yl)methyl)cyclohexane-1-carboxamido)-3,3-dimethylbutanoyl)-4-hydroxy-N—((S)-1-(4-(4-methylthiazol-5-yl)phenyl)ethyl)pyrrolidine-2-carboxamide] | SMARC A4 Hela HiBit DC50(nM) (SMARCA4 [1]; [5]): No Fit; DC50 (SMARCA2 [2]; read-out: SMARC A2 Hela HiBit DC50; Hela SMARCA2-HiBiT cells, 24 hours treatment): < 100 nM
> 90 | – | – | – | – | CC(C)(C)[C@@H](C(=O)N1C[C@H](O)C[C@H]1C(=O)N[C@@H](CN1CCOCC1)c1ccc(-c2ccccc2)cc1)n1cc([C@H]2CC[C@H](CN3CCC(c4ccc5c(c4)-n4c(nc(=O)c6c(Cl)cccc64)C54CCCCC4)CC3)CC2)nn1 [Compound A162, (2S,4R)—N—((R)-1-([1,1′-biphenyl]-4-yl)-2-morpholinoethyl)-1-((S)-2-(4-((1r,4S)-4-((4-(4′-chloro-5′-oxo-5′H-spiro[cyclohexane-1,7′-indolo[1,2-a]quinazolin]-10′-yl)piperidin-1-yl)methyl)cyclohexyl)-1H-1,2,3-triazol-1-yl)-3,3-dimethylbutanoyl)-4-hydroxypyrrolidine-2-carboxamide] | DC50 (SMARCA4 [1]; [5]): 100 to 1000 nM; Dmax (SMARCA4 [1]; [7]): 50 to 69%; DC50 (SMARCA2 [2]; [8]): < 10 nM
– | – | – | – | – | Cc1ncsc1-c1ccc([C@H](C)NC(=O)[C@@H]2C[C@@H](O)CN2C(=O)[C@@H](NC(=O)C23CCC(CN4CCC(c5ccc6c(c5)-n5c(nc(=O)c7c(Br)cccc75)C65CCCCC5)CC4)(CC2)CC3)C(C)(C)C)cc1 [Compound A29] | Dmax (SMARCA4 [1]; Hela SMARCA4-HiBiT cells, 24 hours treatment, read-out: SMARC A4 Hela HiBit Dmax(%)): < 50%; DC50 (SMARCA4 [1]): > 1000 nM; Dmax (SMARCA2 [2]; HeLa, read-out: SMARC A2 Hela HiBit Dmax (%)): 70 to 90%; DC50 (SMARCA2 [2]; [9]): < 100 nM
> 90 | – | – | – | – | Cc1ncsc1-c1ccc([C@H](CN2CCOCC2)NC(=O)[C@@H]2C[C@@H](O)CN2C(=O)[C@H](C(C)C)n2cc([C@H]3CC[C@H](CN4CCC(c5ccc6c(c5)-n5c(nc(=O)c7c(Cl)cccc75)C65CCCCC5)CC4)CC3)nn2)cc1 [Compound A103, (2S,4R)-1-((S)-2-(4-((1r,4S)-4-((4-(4′-chloro-5′-oxo-5′H-spiro[cyclohexane-1,7′-indolo[1,2-a]quinazolin]-10′-yl)piperidin-1-yl)methyl)cyclohexyl)-1H-1,2,3-triazol-1-yl)-3-methylbutanoyl)-4-hydroxy-N-((R)-1-(4-(4-methylthiazol-5-yl)phenyl)-2-morpholinoethyl)pyrrolidine-2-carboxamide] | DC50 (SMARCA4 [1]; [5]): < 10 nM; Dmax (SMARCA4 [1]; [7]): 50 to 69%; DC50 (SMARCA2 [2]; [8]): < 10 nM
– | – | – | – | – | Cc1ncsc1-c1ccc([C@H](C)NC(=O)[C@@H]2C[C@@H](O)CN2C(=O)[C@@H](n2cc(CCN3CCC(c4ccc5c(c4)-n4c(nc(=O)c6c(Br)cccc64)C54CCCCC4)CC3)nn2)C(C)(C)C)cc1 [Compound A48, (2S,4R)-1-((S)-2-(4-(2-(4-(4′-bromo-5′-oxo-5′H-spiro[cyclohexane-1,7′-indolo[1,2-a]quinazolin]-10′-yl)piperidin-1-yl)ethyl)-1H-1,2,3-triazol-1-yl)-3,3-dimethylbutanoyl)-4-hydroxy-N—((S)-1-(4-(4-methylthiazol-5-yl)phenyl)ethyl)pyrrolidine-2-carboxamide] | SMARC A4 Hela HiBit Dmax(%) (SMARCA4 [1]; [5]): C (C (50-69% degradation)); DC50 (SMARCA4 [1]): 100 to 500 nM; SMARC A2 Hela HiBit Dmax (%) (SMARCA2 [2]; Hela SMARCA2-HiBiT cells, 24 hours treatment): A (A (>90% degradation)); DC50 (SMARCA2 [2]; [9]): < 100 nM
– | < 100 | > 90 | 100 to 500 | < 50 | Cc1ncsc1-c1ccc([C@H](C)NC(=O)[C@@H]2C[C@@H](O)CN2C(=O)[C@@H](n2cc(CN3CCC(c4ccc5c(c4)-n4c(nc(=O)c6c(Cl)cccc64)C5(C)C)CC3)nn2)C(C)(C)C)cc1 [Compound B69, (2S,4R)-1-((S)-2-(4-((4-(4-chloro-7,7-dimethyl-5-oxo-5,7-dihydroindolo[1,2-a]quinazolin-10-yl)piperidin-1-yl)methyl)-1H-1,2,3-triazol-1-yl)-3,3-dimethylbutanoyl)-4-hydroxy-N-((S)-1-(4-(4-methylthiazol-5-yl)phenyl)ethyl)pyrrolidine-2-carboxamide] | –
– | < 100 | > 90 | < 100 | > 90 | Cc1cc(C(C(=O)N2C[C@H](O)C[C@H]2C(=O)N[C@@H](CCCCCN2CCC(c3ccc4c(c3)-n3c(nc(=O)c5c(Cl)cccc53)C4(C)C)CC2)c2ccc(-c3scnc3C)cc2)C(C)C)on1 (stereo partly drawn) [Compound B84, (2S,4R)-N-((S)-6-(4-(4-chloro-7,7-dimethyl-5-oxo-5,7-dihydroindolo[1,2-a]quinazolin-10-yl)piperidin-1-yl)-1-(4-(4-methylthiazol-5-yl)phenyl)hexyl)-4-hydroxy-1-(3-methyl-2-(3-methylisoxazol-5-yl)butanoyl)pyrrolidine-2-carboxamide] | –
– | < 100 | 70 to 90 | < 100 | < 50 | Cc1ncsc1-c1ccc([C@H](C)NC(=O)[C@@H]2C[C@@H](O)CN2C(=O)[C@H](C(C)C)n2cc(CCN3CCC(c4ccc5c(c4)-n4c(nc(=O)c6c(Cl)cccc64)C5(C)C)CC3)nn2)cc1 [Compound B36, (2S,4R)-1-((S)-2-(4-(2-(4-(4-chloro-7,7-dimethyl-5-oxo-5,7-dihydroindolo[1,2-a]quinazolin-10-yl)piperidin-1-yl)ethyl)-1H-1,2,3-triazol-1-yl)-3-methylbutanoyl)-4-hydroxy-N-((S)-1-(4-(4-methylthiazol-5-yl)phenyl)ethyl)pyrrolidine-2-carboxamide] | –
– | < 100 | – | 100 to 500 | – | Cc1ncsc1-c1ccc([C@H](C)NC(=O)[C@@H]2C[C@@H](O)CN2C(=O)[C@@H](NC(=O)C2CC(N3CCC(c4ccc5c(c4)C(C)(C)c4nc(=O)c6c(Cl)cccc6n4-5)CC3)C2)C(C)(C)C)cc1 (stereo partly drawn) [Compound B14, (2S,4R)-1-((2S)-2-(3-(4-(4-chloro-7,7-dimethyl-5-oxo-5,7-dihydroindolo[1,2-a]quinazolin-9-yl)piperidin-1-yl)cyclobutane-1-carboxamido)-3,3-dimethylbutanoyl)-4-hydroxy-N-((S)-1-(4-(4-methylthiazol-5-yl)phenyl)ethyl)pyrrolidine-2-carboxamide] | SMARC A2 HT1080 HiBit Dmax (%) (SMARCA2 [3]): A (A (>90% degradation)); SMARC A4 HT1080 HiBit Dmax(%) (SMARCA4 [4]; HT1080 CRISPR knock-in cells): B (B (70-90% degradation))
– | < 100 | – | < 100 | 70 to 90 | Cc1cc(C(C(=O)N2C[C@H](O)C[C@H]2C(=O)N[C@@H](CCN2CCC(c3cccc4c3C(C)(C)c3nc(=O)c5c(Cl)cccc5n3-4)CC2)c2ccc(-c3scnc3C)cc2)C(C)C)on1 (stereo partly drawn) [Compound B152, (2S,4R)—N—((S)-3-(4-(4-chloro-7,7-dimethyl-5-oxo-5,7-dihydroindolo[1,2-a]quinazolin-8-yl)piperidin-1-yl)-1-(4-(4-methylthiazol-5-yl)phenyl)propyl)-4-hydroxy-1-(3-methyl-2-(3-methylisoxazol-5-yl)butanoyl)pyrrolidine-2-carboxamide] | SMARC A2 HT1080 HiBit Dmax (%) (SMARCA2 [3]): A (A (>90% degradation))
